Assay results as given in the supplement of paper PMC10307832.

Key:
Assay in all cases: relative viability (nuclei count vs DMSO), 5 days (fraction); higher = more cells survive
BMX-IN-1 + Luminespib = compound: C=CC(=O)Nc1cc(-n2c(=O)ccc3cnc4ccc(-c5ccc(NS(C)(=O)=O)cc5)cc4c32)ccc1C [BMX-IN-1] + CCNC(=O)c1noc(-c2cc(C(C)C)c(O)cc2O)c1-c1ccc(CN2CCOCC2)cc1 [Luminespib] (partner 0.01 µM)
Procedure, shortened: (§1)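 Lung cancer cell lines in 1536-well plates were dosed by pin tool the day after seeding, either with one drug alone or with a fixed anchor-drug dose plus five library-drug doses (not always all listed) in √10 steps. After 5 days, cells were fixed and their nuclei stained in one step (final 0.05% Triton X-100, 1% formaldehyde, 1 ug/ml Hoechst), then counted on 4× images. Relative viability is the nuclei count in treated wells divided by that in vehicle wells. Values are medians of duplicate plates.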

BMX-IN-1 + Pemetrexed = compound: C=CC(=O)Nc1cc(-n2c(=O)ccc3cnc4ccc(-c5ccc(NS(C)(=O)=O)cc5)cc4c32)ccc1C [BMX-IN-1] + Nc1nc2[nH]cc(CCc3ccc(C(=O)N[C@@H](CCC(=O)O)C(=O)O)cc3)c2c(=O)[nH]1 [Pemetrexed] (partner 0.2 µM)
Procedure, shortened: as §1

PAC-1 + Alpelisib = compound: C=CCc1cccc(/C=N/NC(=O)CN2CCN(Cc3ccccc3)CC2)c1O [PAC-1] + Cc1nc(NC(=O)N2CCC[C@H]2C(N)=O)sc1-c1ccnc(C(C)(C)C(F)(F)F)c1 [Alpelisib] (partner 2 µM)
Procedure, shortened: as §1

PAC-1 + Pemetrexed = compound: C=CCc1cccc(/C=N/NC(=O)CN2CCN(Cc3ccccc3)CC2)c1O [PAC-1] + Nc1nc2[nH]cc(CCc3ccc(C(=O)N[C@@H](CCC(=O)O)C(=O)O)cc3)c2c(=O)[nH]1 [Pemetrexed] (partner 0.2 µM)
Procedure, shortened: as §1

BMX-IN-1 + OSI-027 = compound: C=CC(=O)Nc1cc(-n2c(=O)ccc3cnc4ccc(-c5ccc(NS(C)(=O)=O)cc5)cc4c32)ccc1C [BMX-IN-1] + COc1cccc2cc(-c3nc([C@H]4CC[C@H](C(=O)O)CC4)n4ncnc(N)c34)[nH]c12 [OSI-027] (partner 0.5 µM)
Procedure, shortened: as §1

Question: Which relative viability (BMX-IN-1 + Luminespib; first compound 0.02 µM) does the source give for SK-MES-1 here?
Answer: 0.831

Question: What about the relative viability (BMX-IN-1 + Luminespib; first compound 0.2 µM) of the same cell line?
Answer: 0.879

Question: What about the relative viability (BMX-IN-1 + Luminespib; first compound 0.6325 µM) of the same cell line?
Answer: 0.835

Question: What about the relative viability (BMX-IN-1 + Luminespib; first compound 2 µM) of the same cell line?
Answer: 0.921

Question: And the relative viability (BMX-IN-1 + Pemetrexed; first compound 0.02 µM)?
Answer: 1.11

Question: What about the relative viability (BMX-IN-1 + Pemetrexed; first compound 0.2 µM) of the same cell line?
Answer: 1.11

Question: What about the relative viability (BMX-IN-1 + Pemetrexed; first compound 0.6325 µM) of the same cell line?
Answer: 1.03

Question: What about the relative viability (BMX-IN-1 + Pemetrexed; first compound 2 µM) of the same cell line?
Answer: 0.859

Question: And the relative viability (PAC-1 + Alpelisib; first compound 0.02 µM)?
Answer: 0.845

Question: And the relative viability (PAC-1 + Alpelisib; first compound 0.06325 µM)?
Answer: 0.908

Question: What about the relative viability (PAC-1 + Alpelisib; first compound 0.2 µM) of the same cell line?
Answer: 0.878

Question: What about the relative viability (PAC-1 + Alpelisib; first compound 2 µM) of the same cell line?
Answer: 0.955

Question: And the relative viability (PAC-1 + Pemetrexed; first compound 0.02 µM)?
Answer: 0.939

Question: What about the relative viability (PAC-1 + Pemetrexed; first compound 0.06325 µM) of the same cell line?
Answer: 1.02

Question: What about the relative viability (PAC-1 + Pemetrexed; first compound 0.2 µM) of the same cell line?
Answer: 0.889

Question: And the relative viability (PAC-1 + Pemetrexed; first compound 2 µM)?
Answer: 0.971

Question: And the relative viability (BMX-IN-1 + OSI-027; first compound 0.02 µM)?
Answer: 0.783

Question: What about the relative viability (BMX-IN-1 + OSI-027; first compound 0.2 µM) of the same cell line?
Answer: 0.645

Question: And the relative viability (BMX-IN-1 + OSI-027; first compound 0.6325 µM)?
Answer: 0.757

Question: And the relative viability (BMX-IN-1 + OSI-027; first compound 2 µM)?
Answer: 0.239
